This note sets out measurements from article PMC5697638, “Identification of a Potent Phosphoinositide 3‐Kinase Pan Inhibitor Displaying a Strategic Carboxylic Acid Group and Development of Its Prodrugs” (Chemmedchem, 2017).

Data set [1] in a line: metabolic stability in rat liver microsomes (RLM). The data set is classed as in vitro ADME. The settings on record: 50 μM substrate, 60 min. In general terms: Liver microsomes are a subcellular fraction often used to study metabolism.
The next data set has as its system PC3 cells. In words: analysis of apoptosis, Annexin V staining. The data set is classed as cell-based. The settings on record: 10 μM, 48 h. How it is done: Analysis of apoptosis: For Annexin V staining of apoptotic cells, PC3 cells were seeded at 4×10^5 cells per 6 cm dish in triplicate. Cells were incubated 48 h in the presence or absence of 10 μM 64 and were then detached with 0.1 % trypsin–EDTA, resuspended in Annexin buffer (10 mM HEPES, pH 7.4, 140 mM NaCl, 2.5 mM CaCl2), and stained for Annexin V (FITC Annexin V #640906, BioLegend, USA). Samples were analyzed by using a FACS‐Calibur flow cytometer (Becton Dickinson Immunocytometry Systems, San Jose, USA).

The subject of data set [2] is PI3K/Akt signaling in NIH3T3 cells. In words: insulin-stimulated Akt phosphorylation, Western blot, NIH3T3 cells. The data set is classed as cell-based. The settings on record: 1 μM insulin for 5 min, immunoblot. How it is done:
Figure 8 Treatment with 64 prodrug inhibited PI3K/Akt signaling. NIH3T3 cells were […] for 12 h and were treated with the indicated concentrations of 37 and 64. Cells were next stimulated with 1 μM insulin for 5 min, and total cell lysates were prepared. Immunoblot analysis was conducted for the expression levels of p‐AKT and GAPDH. The immunoblot is representative of three independent experiments.
NIH3T3 cells were seeded in a 96‐well plate and starved overnight (ON) with serum‐free DMEM high glucose GlutaMAXTM (Gibco) supplemented with 5000 U mL^−1 penicillin–streptomycin (Gibco). Cells were then incubated for 1 h with increasing concentrations of 64, 37, or DMSO. Subsequently, cells were stimulated for 5 min with 1 μM of insulin (#91077C, Sigma–Aldrich, USA). Cells were lysed and protein extracts were analyzed by western blot to assess the phosphorylation level of Akt on Ser473.
A general note: Immunoblotting shows a protein as a band on a membrane.

Data set [3] has as its target T1, human PI3Kα (PIK3CA/PIK3R1) (Homo sapiens, UniProt P42336).
T1 construct: purchased ProQinase, Germany 1161‐1165‐1
In words: lipid kinase assay (ADP-Glo), PI3Kα. The data set is classed as biochemical. On the technique in general: ADP-Glo first removes unused ATP, then detects ADP through luciferase.

In the next data set the target is T2, hPI3Kδ (PIK3CD/PIK3R1) (Homo sapiens, UniProt O00329).
T2 construct: purchased ProQinase, Germany 1162–1165‐1
As to the kind of experiment: lipid kinase assay (ADP-Glo), PI3Kδ. The data set is classed as biochemical.

The next data set addresses hPI3K‐C2α (PIK3C2A) (Homo sapiens, UniProt O00443). As to the kind of experiment: lipid kinase assay (ADP-Glo), PI3K-C2α. The data set is classed as biochemical. The settings on record: Table 2; mean of at least three determinations, 95 % confidence intervals; read-out: IC50 PI3Kc2α. How it is done: (§1) In vitro selection, lipid kinase assay: To determine the inhibitory activity of the new molecular entities on PI3K enzyme, a lipid kinase assay was performed: recombinant proteins (30 ng), human PI3Kα (PIK3CA/PIK3R1, #1161‐1165‐1 ProQinase–Germany), hPI3Kβ (PIK3CB wt/PIK3R1, #1168‐1165‐1 ProQinase, Germany), hPI3Kγ (PIK3CG, #1163‐0000‐1 ProQinase, Germany), hPI3Kδ (PIK3CD/PIK3R1, #1162–1165‐1 ProQinase, Germany), hPI3K‐C2α (PIK3C2A, #14‐906 Merck Millipore_Merck KGaA, Germany), hPI3K‐C2β (PIK3C2B, #14‐907 Merck Millipore_Merck KGaA, Germany), hPI3K‐c2γ (PIK3C2G, #1207‐0000‐1 ProQinase, Germany), and hVps34 (PIK3C3, #1160‐0000‐1 ProQinase, Germany), were incubated in kinase buffer {12.5 μL; 20 mM Tris‐HCl pH 7.5, 10 mM MgCl2, 10 μM ATP, 0.05 mg mL^−1 BSA, 0.5 mM EDTA, 5 mM HEPES pH 7.5, for PI3Kα,PI3Kβ, PI3Kγ, PI3Kδ, PI3KC‐2α, and PI3KC‐2γ; 15 mM MnCl2, 5 mM EGTA, 100 μM ATP, 50 mM HEPES pH 7.5, 100 mM NaCl, and 0.03 % CHAPS for PI3K‐C2β and VPS34 {BSA=bovine serum albumin; EDTA=ethylenediaminetetraacetic acid; HEPES=4‐(2‐hydroxyethyl)‐1‐piperazineethanesulfonic acid; EGTA=ethylene glycol‐bis(2‐aminoethylether)‐N,N,N′,N′‐tetraacetic acid; CHAPS=3‐[(3‐cholamidopropyl)dimethylammonio]‐1‐propanesulfonate}. In the reaction, the ATP concentration used for different PI3Ks was defined on the basis of the Michaelis–Menten kinetics of each enzyme, provided by the supplier. […]

A further data set addresses hPI3K‐C2β (PIK3C2B) (Homo sapiens, UniProt O00750). In words: lipid kinase assay (ADP-Glo), PI3K-C2β. The settings on record: Table 2; 100 μM ATP; read-out: IC50 PI3Kc2β. The data set is classed as biochemical. The procedure:
as §1

T1 sequence (P42336 whole entry): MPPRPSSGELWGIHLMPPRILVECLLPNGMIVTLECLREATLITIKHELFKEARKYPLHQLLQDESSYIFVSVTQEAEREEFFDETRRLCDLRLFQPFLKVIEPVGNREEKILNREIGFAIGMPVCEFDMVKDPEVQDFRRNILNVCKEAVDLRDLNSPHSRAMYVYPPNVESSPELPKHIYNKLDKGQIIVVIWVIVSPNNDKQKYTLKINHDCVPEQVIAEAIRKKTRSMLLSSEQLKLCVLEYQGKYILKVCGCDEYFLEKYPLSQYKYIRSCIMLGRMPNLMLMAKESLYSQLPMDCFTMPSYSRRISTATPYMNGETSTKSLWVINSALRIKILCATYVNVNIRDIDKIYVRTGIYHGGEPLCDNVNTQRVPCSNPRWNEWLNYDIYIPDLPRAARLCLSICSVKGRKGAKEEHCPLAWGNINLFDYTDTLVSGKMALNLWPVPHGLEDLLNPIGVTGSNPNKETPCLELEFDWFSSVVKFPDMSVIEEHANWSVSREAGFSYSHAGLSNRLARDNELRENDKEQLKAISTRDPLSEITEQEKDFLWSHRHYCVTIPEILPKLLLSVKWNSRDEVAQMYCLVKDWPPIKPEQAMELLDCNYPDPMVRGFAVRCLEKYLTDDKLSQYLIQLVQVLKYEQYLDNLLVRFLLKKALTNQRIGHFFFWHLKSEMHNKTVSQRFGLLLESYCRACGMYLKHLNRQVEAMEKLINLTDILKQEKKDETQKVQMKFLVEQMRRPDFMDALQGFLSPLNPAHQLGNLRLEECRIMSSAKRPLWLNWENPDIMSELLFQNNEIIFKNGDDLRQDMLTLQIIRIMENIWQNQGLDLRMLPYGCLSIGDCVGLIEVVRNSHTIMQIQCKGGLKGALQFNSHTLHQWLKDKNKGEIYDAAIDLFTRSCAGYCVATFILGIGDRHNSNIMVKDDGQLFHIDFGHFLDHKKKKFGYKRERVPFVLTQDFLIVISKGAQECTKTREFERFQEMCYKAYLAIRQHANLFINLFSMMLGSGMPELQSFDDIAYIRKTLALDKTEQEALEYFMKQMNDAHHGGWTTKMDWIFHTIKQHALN
T1 sequence (P27986 whole entry partner): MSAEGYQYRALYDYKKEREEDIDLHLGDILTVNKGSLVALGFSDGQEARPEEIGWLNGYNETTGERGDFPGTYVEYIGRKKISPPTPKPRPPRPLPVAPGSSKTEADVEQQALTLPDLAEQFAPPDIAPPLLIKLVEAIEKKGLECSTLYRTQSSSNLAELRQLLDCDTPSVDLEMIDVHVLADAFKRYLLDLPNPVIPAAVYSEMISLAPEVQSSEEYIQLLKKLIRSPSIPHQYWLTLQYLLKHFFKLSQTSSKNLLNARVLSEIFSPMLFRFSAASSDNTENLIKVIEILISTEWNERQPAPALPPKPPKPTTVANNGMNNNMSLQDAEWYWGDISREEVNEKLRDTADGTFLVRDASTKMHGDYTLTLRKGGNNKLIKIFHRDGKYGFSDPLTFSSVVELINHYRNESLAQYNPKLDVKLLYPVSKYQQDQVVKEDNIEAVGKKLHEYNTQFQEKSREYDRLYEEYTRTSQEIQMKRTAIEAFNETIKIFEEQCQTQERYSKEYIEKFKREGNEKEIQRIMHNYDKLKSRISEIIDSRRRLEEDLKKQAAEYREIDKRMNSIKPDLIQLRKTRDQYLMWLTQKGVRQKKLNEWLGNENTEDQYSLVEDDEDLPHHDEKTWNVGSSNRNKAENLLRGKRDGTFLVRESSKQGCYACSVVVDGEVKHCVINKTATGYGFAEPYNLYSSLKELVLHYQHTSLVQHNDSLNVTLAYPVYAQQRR
T2 sequence (O00329 whole entry): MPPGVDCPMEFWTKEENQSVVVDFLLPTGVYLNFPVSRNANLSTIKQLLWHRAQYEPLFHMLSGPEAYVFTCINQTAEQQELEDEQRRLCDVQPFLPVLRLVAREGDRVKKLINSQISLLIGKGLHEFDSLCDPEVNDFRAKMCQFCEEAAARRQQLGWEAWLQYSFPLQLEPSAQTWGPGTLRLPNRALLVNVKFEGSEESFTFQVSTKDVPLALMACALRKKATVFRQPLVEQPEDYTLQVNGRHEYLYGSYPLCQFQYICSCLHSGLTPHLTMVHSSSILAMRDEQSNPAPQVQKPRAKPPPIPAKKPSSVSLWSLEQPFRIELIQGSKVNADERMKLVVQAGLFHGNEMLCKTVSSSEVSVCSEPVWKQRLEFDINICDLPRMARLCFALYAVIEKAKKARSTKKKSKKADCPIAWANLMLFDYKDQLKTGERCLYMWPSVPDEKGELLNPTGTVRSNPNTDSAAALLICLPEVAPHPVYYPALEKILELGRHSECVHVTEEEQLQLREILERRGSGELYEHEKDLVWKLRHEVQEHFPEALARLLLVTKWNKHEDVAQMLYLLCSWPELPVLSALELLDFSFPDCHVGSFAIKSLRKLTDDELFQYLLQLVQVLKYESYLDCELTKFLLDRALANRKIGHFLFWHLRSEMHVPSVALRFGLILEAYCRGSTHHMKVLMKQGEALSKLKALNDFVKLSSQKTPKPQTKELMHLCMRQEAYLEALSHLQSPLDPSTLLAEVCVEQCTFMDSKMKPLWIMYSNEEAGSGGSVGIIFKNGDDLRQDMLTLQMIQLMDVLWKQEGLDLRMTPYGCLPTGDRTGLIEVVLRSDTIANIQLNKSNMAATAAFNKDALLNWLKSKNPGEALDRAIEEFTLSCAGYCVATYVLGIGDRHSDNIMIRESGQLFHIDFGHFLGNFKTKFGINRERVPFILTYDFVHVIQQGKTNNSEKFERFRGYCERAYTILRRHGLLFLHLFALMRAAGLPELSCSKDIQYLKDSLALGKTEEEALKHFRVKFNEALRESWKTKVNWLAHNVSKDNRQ
T2 sequence (P27986 whole entry partner): as the sequence (P27986 whole entry partner) above
Sequence of hPI3K‐C2β (PIK3C2B) (O00750 whole entry): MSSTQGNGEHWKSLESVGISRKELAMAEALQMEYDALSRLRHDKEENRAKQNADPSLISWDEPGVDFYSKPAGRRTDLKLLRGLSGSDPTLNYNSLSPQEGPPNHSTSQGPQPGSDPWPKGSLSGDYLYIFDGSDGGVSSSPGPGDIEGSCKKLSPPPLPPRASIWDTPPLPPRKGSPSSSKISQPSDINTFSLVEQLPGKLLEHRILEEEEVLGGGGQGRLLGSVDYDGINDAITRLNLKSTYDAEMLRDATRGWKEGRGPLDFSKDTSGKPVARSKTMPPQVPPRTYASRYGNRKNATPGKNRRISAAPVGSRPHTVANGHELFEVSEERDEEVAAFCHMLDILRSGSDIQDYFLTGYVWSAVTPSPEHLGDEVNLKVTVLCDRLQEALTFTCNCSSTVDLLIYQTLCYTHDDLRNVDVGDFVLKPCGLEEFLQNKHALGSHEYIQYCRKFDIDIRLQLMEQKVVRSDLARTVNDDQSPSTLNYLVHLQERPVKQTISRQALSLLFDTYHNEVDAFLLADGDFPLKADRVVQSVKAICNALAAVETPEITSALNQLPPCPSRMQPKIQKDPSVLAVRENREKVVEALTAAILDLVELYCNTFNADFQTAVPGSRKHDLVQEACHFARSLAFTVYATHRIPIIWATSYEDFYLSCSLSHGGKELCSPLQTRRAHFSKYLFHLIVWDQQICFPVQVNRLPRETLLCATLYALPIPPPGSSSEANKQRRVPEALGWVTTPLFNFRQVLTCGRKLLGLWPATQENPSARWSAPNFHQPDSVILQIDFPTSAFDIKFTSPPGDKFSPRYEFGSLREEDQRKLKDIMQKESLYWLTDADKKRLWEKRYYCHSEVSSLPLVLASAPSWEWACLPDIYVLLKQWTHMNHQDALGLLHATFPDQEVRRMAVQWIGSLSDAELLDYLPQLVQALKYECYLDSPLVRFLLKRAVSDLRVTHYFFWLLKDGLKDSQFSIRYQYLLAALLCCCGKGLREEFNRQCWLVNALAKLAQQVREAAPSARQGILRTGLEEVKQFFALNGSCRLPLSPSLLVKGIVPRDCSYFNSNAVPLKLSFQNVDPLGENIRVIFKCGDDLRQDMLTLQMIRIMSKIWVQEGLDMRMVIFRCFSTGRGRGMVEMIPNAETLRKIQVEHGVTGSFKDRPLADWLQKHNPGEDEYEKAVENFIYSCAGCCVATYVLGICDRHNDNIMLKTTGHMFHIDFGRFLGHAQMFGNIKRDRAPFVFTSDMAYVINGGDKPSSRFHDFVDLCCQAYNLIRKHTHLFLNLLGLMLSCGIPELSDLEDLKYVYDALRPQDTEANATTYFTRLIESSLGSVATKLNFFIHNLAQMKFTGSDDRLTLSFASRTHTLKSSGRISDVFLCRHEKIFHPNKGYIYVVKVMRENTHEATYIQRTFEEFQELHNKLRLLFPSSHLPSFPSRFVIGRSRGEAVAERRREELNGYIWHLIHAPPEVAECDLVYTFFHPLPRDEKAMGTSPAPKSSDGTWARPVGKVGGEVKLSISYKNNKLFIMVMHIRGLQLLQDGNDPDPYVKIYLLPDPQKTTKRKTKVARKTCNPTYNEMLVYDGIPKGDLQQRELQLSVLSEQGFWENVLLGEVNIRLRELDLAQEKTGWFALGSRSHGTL

Turning to `COC(=O)c1cccc(Cn2cc(-c3cccc4c(=O)cc(N5CCOCC5)[nH]c34)nn2)c1` [Compound 64, Methyl 3‐{[4‐(2‐morpholino‐4‐oxo‐1,4‐dihydroquinolin‐8‐yl)‐1H‐1,2,3‐triazol‐1‐yl]methyl}benzoate], the “% residual substrate, RLM (without NADPH)” value in data set [1] is given as 32%. In addition, the “effect on cell apoptosis” value in the data set on PC3 cells is on record as “did not show any effect in inducing cell apoptosis”. Moreover, the “Akt phosphorylation after insulin stimulation” value in data set [2] is “able to inhibit the PI3K‐signaling pathway in a dose‐dependent manner”. For the same molecule, the “inhibition of PI3Kα activity” value in data set [3] (at 100 nM) is “not able to inhibit PI3Kα activity”.
For the molecule `O=C(O)c1cccc(Cn2cc(-c3cccc4c(=O)cc(N5CCOCC5)[nH]c34)nn2)c1` [Compound 37, 3‐{[4‐(2‐Morpholino‐4‐oxo‐1,4‐dihydroquinolin‐8‐yl)‐1H‐1,2,3‐triazol‐1‐yl]methyl}benzoic acid], the IC50 (commonly the point on the concentration scale where inhibition reaches its midpoint) was 19 ± 4 nM against hPI3Kδ (PIK3CD/PIK3R1) (Table 2, mean of at least three determinations, 95 % confidence intervals); 3700 ± 1100 nM on hPI3K‐C2α (PIK3C2A); greater than 20000 nM on hPI3K‐C2β (PIK3C2B); 18 ± 4 nM in data set [3] (Table 2, mean of at least three determinations, 95 % confidence intervals, read-out: IC50 PI3Kα). The inhibition at 1 µM is greater than 50% at hPI3Kδ (PIK3CD/PIK3R1) (determined at 1 μM, at least triplicate, read-out: Inhibitory activity, PI3K isoform δ) and greater than 50% in data set [3] (determined at 1 μM, at least triplicate, read-out: Inhibitory activity, PI3K isoform α). Also, in data set [2], the “Akt phosphorylation after insulin stimulation” value is given as “did not decrease Akt phosphorylation”.
